Test results from ChEMBL document CHEMBL6109037, “Understanding the mechanisms of antimicrobial resistance and potential therapeutic approaches against the Gram-negative pathogen Acinetobacter baumannii” (RSC Med Chem, 2024).
≈ marks a conversion by molar mass, not a printed value.

Key:
Acinetobacter baumannii [1] = assay: Antibacterial activity against Acinetobacter baumannii; format: functional
Acinetobacter baumannii [2] = assay: Synergistic antibacterial activity against Acinetobacter baumannii assessed as inhibition of bacterial growth incubated for 18 to 24 hrs by Checkerboard assay relative to control; format: functional; design: scale not given: the % may be the effect or the level left; details: time 18-24 hrs
Acinetobacter baumannii [3] = assay: Antibacterial activity against Acinetobacter baumannii ATCC 17978 assessed as inhibition of bacterial growth incubated for 18 to 20 hrs by two fold serial dilution assay; format: functional; details: time 18-20 hrs
DNA gyrase = DNA gyrase (Escherichia coli, UniProt P0AES4+P0AES6); assay: Inhibition of Escherichia coli DNA gyrase; format: protein-complex assay
Acinetobacter baumannii [4] = assay: Antibacterial activity against Acinetobacter baumannii AB-5075 assessed as reduction in bacterial growth incubated for 18 to 24 hrs by broth micro-dilution assay; format: functional, organism-based
Acinetobacter baumannii [5] = assay: Bactericidal activity against Acinetobacter baumannii; format: functional
Acinetobacter baumannii [6] = assay: Antibacterial activity against Acinetobacter baumannii ATCC 17978 assessed as reduction in microbial growth incubated for 24 hrs Mueller-Hintorn broth dilution method; format: functional, organism-based; details: ATCC 17978, 24 h
Acinetobacter baumannii [7] = assay: Antibacterial activity against multidrug-resistant Acinetobacter baumannii ATCC 17978 assessed as reduction in bacterial growth incubated for 24 hrs by micro-broth dilution method; format: functional
Acinetobacter baumannii [8] = assay: Antibacterial activity against Acinetobacter baumannii ATCC 17978 assessed as reduction in bacterial growth incubated for 24 hrs by micro-broth dilution method; format: functional
Acinetobacter baumannii [9] = assay: Antibacterial activity against Acinetobacter baumannii ATCC 17978 assessed as bacterial eradication; format: functional
Escherichia coli = assay: Antibacterial activity against Escherichia coli; format: functional
Acinetobacter baumannii [10] = assay: Antibacterial activity against Acinetobacter baumannii ATCC 17978 assessed as reduction in bacterial growth incubated for 24 hrs by broth dilution assay; format: functional
Acinetobacter baumannii [11] = assay: Antibacterial activity against multidrug-resistant Acinetobacter baumannii assessed as inhibition of bacterial growth incubated for 24 hrs by broth dilution assay; format: functional
Staphylococcus aureus [12] = assay: Antibacterial activity against Staphylococcus aureus; format: functional
Acinetobacter baumannii [13] = assay: Synergistic antibacterial activity against Acinetobacter baumannii clinical isolates assessed as inhibition of bacterial growth incubated for 18 to 24 hrs by Checkerboard assay relative to control; format: functional; design: scale not given: the % may be the effect or the level left; details: time 18-24 hrs
Acinetobacter baumannii [14] = assay: Antibacterial activity against Acinetobacter baumannii BAA-1605 assessed as reduction in microbial growth incubated for 24 hrs by broth micro-dilution method; format: functional
Staphylococcus aureus [15] = assay: Antibacterial activity against Staphylococcus aureus assessed as reduction in microbial growth; format: functional
Klebsiella pneumoniae = assay: Antibacterial activity against Klebsiella pneumoniae; format: functional
Acinetobacter baumannii [16] = assay: Antibacterial activity against Acinetobacter baumannii ATCC 17978 assessed as reduction in microbial growth; format: functional
Acinetobacter baumannii [17] = assay: Antibacterial activity against Acinetobacter baumannii assessed as zone of inhibition; format: functional

Q: Which MIC (Acinetobacter baumannii [1]) does the source give for `C[C@@H](O)[C@H]1C(=O)N2C(C(=O)O)=C(S[C@@H]3CN[C@H](C(=O)N(C)C)C3)[C@H](C)[C@H]12` [MEROPENEM] here?
A: Its MIC is > 8 µg/mL.

Q: For `CC1(C)[C@H](C(=O)O)N2C(=O)C[C@H]2S1(=O)=O` [SULBACTAM], which Activity (Acinetobacter baumannii [2]) is on record?
A: Its Activity is ~70%.

Q: For `Cc1c(N2C[C@H](N)C3(CC3)C2)c(F)cn2c(=O)c(C(=O)O)cc(C3CC3)c12`, which MIC (Acinetobacter baumannii [3]) is on record?
A: Its MIC is 0.19 µg/mL (≈ 0.512 µM).

Q: What does the source list for `Cc1[nH]c(C(=O)Nc2nc3cc(NCc4ccccc4)c(C(=O)O)cc3s2)c(Cl)c1Cl`?
A: MIC (Acinetobacter baumannii [1]): 8 µg/mL (≈ 16.8 µM); IC50 (DNA gyrase): < 0.071 µM

Q: For `O=C(O)c1ccc(-c2nn(-c3ccc(C(=O)O)cc3)cc2/C=N/Nc2ccc(Cl)cc2)cc1`, which MIC (Acinetobacter baumannii [1]) is on record?
A: Its MIC is 0.79 µg/mL (≈ 1.71 µM).

Q: `O=c1[nH]cc(F)c(=O)[nH]1` [FLUOROURACIL] was tested. Which IC50 (Acinetobacter baumannii [4]) did it give?
A: The IC50 was 1.8 µM.

Q: How did the MIC (Acinetobacter baumannii [5]) turn out when H-RWKIFKKIPKFLHSAKKW-NH2 was run?
A: The MIC was 4 µg/mL.

Q: How did the MIC (Acinetobacter baumannii [1]) turn out when `Oc1cccc(/C=N/Nc2ccccn2)c1O` was run?
A: The MIC was 25 µg/mL (≈ 109 µM).

Q: With `O=c1[nH]c(=O)n(C2OC(CO)c3ccccc32)cc1F` (configuration not stated) as the compound, how does the IC50 (Acinetobacter baumannii [6]) read?
A: Its IC50 is < 2 µM.

Q: Which IC50 (Acinetobacter baumannii [6]) does the source give for `CC(C)(C)n1cc(C(=O)O)c(=O)c2cc(F)c(Cl)nc21` here?
A: The IC50 was < 2 µM.

Q: Which results are given for `CC(CN1c2ccccc2Sc2ccccc21)N(C)C` (configuration not stated) [PROMETHAZINE]?
A: MIC (Acinetobacter baumannii [7]): 100 µg/mL (≈ 352 µM); MIC (Acinetobacter baumannii [8]): 100 µg/mL (≈ 352 µM); MBEC (Acinetobacter baumannii [9]): 0.3 g/L

Q: `COCCCNc1cc2nc(NC(=O)c3[nH]c(C)c(Cl)c3Cl)sc2cc1C(=O)O` was tested. Which MIC (Acinetobacter baumannii [1]) did it give?
A: The MIC was 4 µg/mL (≈ 8.75 µM).

Q: `Cc1c(CN(C)C(=O)/C=C/c2cnc3c(c2)CCC(=O)N3)oc2ccccc12` [AFN-1252] was tested. Which MIC (Escherichia coli) did it give?
A: The MIC was > 32 µg/mL.

Q: Which MIC (Acinetobacter baumannii [10]) does the source give for `Cc1c(N2C[C@H](C)N[C@@H](C)C2)c(F)cn2c(=O)c(C(=O)O)cc(C3CC3)c12` here?
A: The MIC was 0.31 µM (≈ 0.116 µg/mL).

Q: Which MIC (Acinetobacter baumannii [3]) does the source give for `Cc1c(N2C[C@@H](N)[C@@H](C)C2)c(F)cn2c(=O)c(C(=O)O)cc(C3CC3)c12` here?
A: The MIC was 0.09 µg/mL (≈ 0.25 µM).

Q: `Cc1cc(-n2sc(Cl)c(C)c2=O)ccc1Cl` was tested. Which MIC (Acinetobacter baumannii [11]) did it give?
A: The MIC was 2 µg/mL (≈ 7.29 µM).

Q: How did the MIC (Acinetobacter baumannii [11]) turn out when THIMEROSAL was run?
A: Its MIC is 1 µg/mL.

Q: Which results are given for `CSc1ccc2c(c1)N(CCC1CCCCN1C)c1ccccc1S2` (configuration not stated) [THIORIDAZINE]?
A: MIC (Acinetobacter baumannii [7]): 100 µg/mL (≈ 270 µM); MIC (Acinetobacter baumannii [8]): 100 µg/mL (≈ 270 µM); MBEC (Acinetobacter baumannii [9]): 0.3 g/L

Q: Which results are given for `CN1CCN(CCCN2c3ccccc3Sc3ccc(C(F)(F)F)cc32)CC1` [TRIFLUOPERAZINE]?
A: MIC (Acinetobacter baumannii [7]): 100 µg/mL (≈ 245 µM); MIC (Acinetobacter baumannii [8]): 100 µg/mL (≈ 245 µM); MBEC (Acinetobacter baumannii [9]): 0.3 g/L

Q: What does the source list for `CN(C)CCCN1c2ccccc2Sc2ccc(Cl)cc21` [CHLORPROMAZINE]?
A: MIC (Acinetobacter baumannii [7]): 100 µg/mL (≈ 314 µM); MIC (Acinetobacter baumannii [8]): 100 µg/mL (≈ 314 µM); MBEC (Acinetobacter baumannii [9]): 0.3 g/L

Q: `NNC(=O)CSc1ccc([N+](=O)[O-])cc1Cl` was tested. Which IC50 (Acinetobacter baumannii [6]) did it give?
A: Its IC50 is 11.7 µM.

Q: `O=[N+]([O-])c1ccc(O)c(/C=N/Nc2ccccn2)c1` was tested. Which MIC (Acinetobacter baumannii [1]) did it give?
A: The MIC was 25 µg/mL (≈ 96.8 µM).

Q: For `Cc1cc(=O)n(C)c2c3c4c(cc12)c(C)cc(=O)n4CCO3`, which MIC (Acinetobacter baumannii [1]) is on record?
A: Its MIC is > 32 µg/mL.

Q: And the MIC (Staphylococcus aureus [12])?
A: Its MIC is 0.06 µg/mL (≈ 0.202 µM).

Q: What about the MIC (Escherichia coli) of the same compound?
A: Its MIC is > 32 µg/mL.

Q: How did the Activity (Acinetobacter baumannii [13]) turn out when `NCC[C@H](O)C(=O)N[C@@H]1C[C@H](N)[C@@H](O[C@H]2O[C@H](CN)[C@@H](O)[C@H](O)[C@H]2O)[C@H](O)[C@H]1O[C@H]1O[C@H](CO)[C@@H](O)[C@H](N)[C@H]1O` [AMIKACIN] was run?
A: Its Activity is 46.2%.

Q: `C[C@@H](O)[C@H]1C(=O)N2C(C(=O)O)=C(SCCNC=N)C[C@H]12` [IMIPENEM ANHYDROUS] was tested. Which MIC (Acinetobacter baumannii [1]) did it give?
A: The MIC was > 8 µg/mL.

Q: For `Cc1c(Cl)sn(-c2ccc(Cl)cc2)c1=O`, which MIC (Acinetobacter baumannii [11]) is on record?
A: Its MIC is 0.25 µg/mL (≈ 0.961 µM).

Q: For `CC[C@H]1OC(=O)[C@H](C)[C@@H](O[C@H]2C[C@@](C)(OC)[C@@H](O)[C@H](C)O2)[C@H](C)[C@@H](O[C@@H]2O[C@H](C)C[C@H](N(C)C)[C@H]2O)[C@](C)(O)C[C@@H](C)CN(C)[C@H](C)[C@@H](O)[C@]1(C)O` [AZITHROMYCIN], which IC50 (Acinetobacter baumannii [4]) is on record?
A: The IC50 was 1.1 µM.

Q: `Cc1cc(=O)n(C)c2c3c4c(cc12)c(C)cc(=O)n4C(CN)CO3` (configuration not stated) was tested. Which MIC (Acinetobacter baumannii [1]) did it give?
A: Its MIC is 2 µg/mL (≈ 6.15 µM).

Q: And the MIC (Staphylococcus aureus [12])?
A: The MIC was 0.03 µg/mL (≈ 0.0922 µM).

Q: And the MIC (Escherichia coli)?
A: Its MIC is 0.5 µg/mL (≈ 1.54 µM).

Q: For `O=C(O)c1ccc(-n2cc(/C=N/Nc3ccc(Cl)cc3)c(-c3ccccc3)n2)cc1`, which MIC (Acinetobacter baumannii [1]) is on record?
A: Its MIC is 4 µg/mL (≈ 9.6 µM).

Q: With `Brc1ccc2[nH]c(-c3ccncc3)cc2c1` as the compound, how does the MIC (Acinetobacter baumannii [3]) read?
A: The MIC was < 2 µg/mL.

Q: With `CO[C@@]12[C@H](COC(N)=O)C3=C(C(=O)C(C)=C(N)C3=O)N1C[C@@H]1N[C@@H]12` [MITOMYCIN] as the compound, how does the MIC (Acinetobacter baumannii [14]) read?
A: The MIC was ≤ 8 µg/mL.

Q: Which results are given for `CN(C)c1cc(NC(=O)CNC(C)(C)C)c(O)c2c1C[C@H]1C[C@H]3[C@H](N(C)C)C(O)=C(C(N)=O)C(=O)[C@@]3(O)C(O)=C1C2=O` [TIGECYCLINE]?
A: MIC (Acinetobacter baumannii [1]): 0.5 µg/mL (≈ 0.854 µM); IC50 (Acinetobacter baumannii [4]): 0.15 µM

Q: Which MBC (Staphylococcus aureus [15]) does the source give for `Cn1cnc2c3c(Cl)c4ccccc4nc3ccc21` here?
A: The MBC was 2 µg/mL.

Q: Which MIC (Acinetobacter baumannii [1]) does the source give for `Cc1c(CN(C)C(=O)/C=C/c2cnc3c(c2)CC(N)C(=O)N3)oc2ccccc12` (configuration not stated) here?
A: Its MIC is 4 µg/mL (≈ 10.2 µM).

Q: What about the MIC (Escherichia coli) of the same compound?
A: Its MIC is 4 µg/mL (≈ 10.2 µM).

Q: And the MIC (Klebsiella pneumoniae)?
A: Its MIC is 4 µg/mL (≈ 10.2 µM).

Q: How did the MIC (Acinetobacter baumannii [1]) turn out when `O=C(O)c1ccc(-n2cc(/C=N/Nc3ccc(F)cc3)c(-c3ccccc3)n2)cc1` was run?
A: The MIC was 8 µg/mL (≈ 20 µM).

Q: With `CNc1nc(NCc2ccccc2)nc2ccc(C)cc12` as the compound, how does the MIC (Acinetobacter baumannii [16]) read?
A: The MIC was 1 µM.

Q: For `O=C(O)c1ccc(-n2cc(/C=N/Nc3ccccc3)c(-c3ccccc3)n2)cc1`, which “inhibition zone (IZ)” value (Acinetobacter baumannii [17]) is on record?
A: The value was 28 mm.

Q: How did the MIC (Acinetobacter baumannii [10]) turn out when `CNCC1=CCCN(c2c(F)cn3c(=O)c(C(=O)O)cc(C4CC4)c3c2C)C1` was run?
A: Its MIC is 0.16 µM (≈ 0.0617 µg/mL).

Q: How did the MIC (Acinetobacter baumannii [1]) turn out when `O=C(O)c1ccc(-c2nn(-c3ccc(C(=O)O)cc3)cc2/C=N/Nc2cccc(F)c2)cc1` was run?
A: Its MIC is 1.56 µg/mL (≈ 3.51 µM).

Q: For `O=C1NC2(CCC3(CC2)OCCO3)NN1c1ccc(Cl)cc1`, which IC50 (Acinetobacter baumannii [6]) is on record?
A: Its IC50 is 10.8 µM.

Q: With `CN(C)[C@@H]1C(O)=C(C(N)=O)C(=O)[C@@]2(O)C(O)=C3C(=O)c4c(O)cccc4[C@@](C)(O)[C@H]3C[C@@H]12` [TETRACYCLINE] as the compound, how does the IC50 (Acinetobacter baumannii [4]) read?
A: Its IC50 is 0.04 µM.
